Reference: patent US20230257385A1, “SALT AND SOLID FORMS OF TABERNANTHALOG” (priority 2021, published 2023)
Counter-ions that a name gives are not always drawn.

What was measured:
Type in all cases: physicochemical
[1] = Standing of solid forms over time (form by XRPD)
Text: FIG. 844 depicts the XRPD profile of Experiment 1-Sample D2 (Tabernanthalog·Sorbate, Form A).

[2] = Amorphous study (freeze drying, evaporation, spray drying, bead milling) of monofumarate and sorbate
Text: The purpose of this study was to generate amorphous material to be characterized and used in water activity studies. To achieve this, the two salts were exposed to a variety of techniques in attempts to generate the amorphous forms, including freeze drying, evaporation, vacuum desiccation and cryodesiccation spray drying. These techniques were not successful for the two salts Tabernanthalog·Monofumarate and Tabernanthalog·Sorbate.
Bead milling was attempted to generate the amorphous form of Tabernanthalog·Sorbate (Tabernanthalog·Sorbate, Form A). The salt underwent neat milling and separately with the addition of tetradecafluorohexane (TDFH). The following experiments were performed: Experiment 6-Sample A1 (30 Hz, 2 h), Experiment 6-Sample A2 (30 Hz, 5.5 h) and Experiment 6-Sample A3 (30 Hz 1 h, TDFH), the products from each experiment was analysed by XRPD to determine the extent of crystallinity (FIG. 812). None of the experiments provided amorphous material.
Each salt was charged to a 7 ml vial (50 mg, 1.0 wt). To the vial containing Tabernanthalog·Monofumarate (Tabernanthalog·Monofumarate), was charged water (10.0 vol), to fully dissolve the sample. Tabernanthalog·Sorbate (A1270-076-A1) was taken-up in ethanol/water (15% v/v, 10 vol), a further charge of water (1.0 ml), was added to ensure that the sample dissolved.
Vials containing the salt solutions were placed on the freeze drier apparatus overnight, and the cryo-desiccated products were recovered the following morning and analysed by XRPD each product remained crystalline.
Tabernanthalog·Monofumarate (A1272−082-A2, 51.1 mg, 1.0 wt) was charged to a 7 ml scintillation vial followed by THE (2 ml, […]), the suspension was heated to 50° C., until full dissolution was observed. The vial was stoppered by foil and a pin hole was pierced in the top. The vial was located under a steady N2 stream.
Tabernanthalog·Sorbate (A1270−076-A1, 99.4 mg, 1.0 wt) was charged to a 7 ml scintillation vial, followed by hexafluoroisopropanol (HFIPA, 5.0 vol, 0.5 ml), after which, the sample fully dissolved. The cap was replaced by foil and pierced on the top. Solvent was allowed to evaporate, to afford a dry, brown solid that was analysed by XRPD yielding crystalline pattern #7. Sample were dried under N2 stream for 5 h and reanalysed by XRPD, remaining as pattern #7
Tabernanthalog·Sorbate (A1270−076-A1, 50.0 mg, 1.0 wt) was charged to a 7 ml scintillation vial followed by hexafluoroisopropanol (HFIPA, 0.5 ml, 10 vol), to yield a clear solution. The solution was concentrated to dryness, by rotary evaporation, yielding an oil, that was allowed to stand undisturbed overnight.
Tabernanthalog·Sorbate (A1270−076-A1, 50.0 mg, 1.0 wt) was charged to a 7 ml scintillation vial, followed by methanol (300 μl, 6.0 vol). The solution was clarified by filtration into a 7 ml scintillation vial, containing diethyl ether (1.0 ml, 20.0 vol).
Tabernanthalog·Sorbate (A1270−076-A1, 102 mg, 1 wt) was charged to a 7.0 ml scintillation vial followed by methanol (1.9 ml, 19.0 vol). The solution was loaded into the spray drier apparatus.
The procedure yielded a brown powder (30 mg, 30% th.).
Tabernanthalog·Sorbate (A1270-076-A1, Form A) was charged to a 1.5 ml steel milling-vessel with a single 5 mm ball bearing. The sample was milled for 5.5 h at 30 Hz and yielded an off-white powder, that was analysed by XRPD, no change in crystallinity.

[3] = Thermal study: glass transition temperature (Tg) of amorphous monofumarate and sorbate
Experimental: Each salt was analysed by DSC and TGA to determine the Tg of the amorphous form. Amorphous forms were generated by thermocycling the salt past the melt temperature, cooling the sample, and once cooled the samples were reheated. Open pan and sealed pan DSC were utilised, open pan DSC were heated past the melt event, cooled, and left to stand under ambient conditions overnight.
Sealed pans were immediately cycled with no time left to stand.
TGA (open pan) samples were analysed by thermocycle, with no time for the sample to stand under ambient conditions.
The amorphous forms were generated in these studies and characterised with their Tg being measured.
A hot stage microscope heating block was used to generate the amorphous phase in-situ, to allow analysis by XRPD. A silicon XRPD sample plate was loaded with the appropriate salt. The plate was heated past the melt event, removed from the hot stage microscope block and cooled to ambient in air and analysed by XRPD to ensure that the amorphous form was generated. The amorphous material was then analysed by ^1H NMR and LC-MS to ensure there was no change in chemical composition.
Two DSC pans were charge with the appropriate salt (Tabernanthalog·Sorbate, A1270−076-A1 and Tabernanthalog·Monofumarate, Tabernanthalog·Monofumarate), the first DSC pan was not sealed (open pan DSC), the second was sealed (hermetic sealed pan DSC). The open pan DSC was cycled from 20° C. to just after the melt event for each, cooled to −20° C. and left to stand under ambient conditions over night. The open pan DSC was then heated to just before the thermal degradation event (Tabernanthalog·Sorbate ca. 160° C., Tabernanthalog·Monofumarate ca. 210° C.) The hermetic sealed DSC was heated from 20° C. to just after the melt event, cooled to −20° C. then headed to just before the same degradation event.
Two TGA crucibles were charged with the appropriate salt (Tabemanthalog·Sorbate, A1270-076-A1, Tabernanthalog·Monofumarate, Tabernanthalog·Monofumarate), both were thermocycled from 20° C. to past the melt event and then cooled to −20° C., each pan was then immediately heated to just before the degradation event to measure the Tg event.

[4] = Stability assessment at 40° C./75% RH (open vial / double bagged open vial); settings: 4-to-5-week period
Experimental: FIG. 62 depicts the XRPD diffractogram overlay of the time point monitoring of 2-A (open vial) at 75% RH at 40° C. Overlay of, from bottom to top, the tabernanthalog monofumarate (Sample Reference 1, t=0), 2-A1 (t=3 h), 2-A2 (t=24 h), 2-A3 (t=48 h), 2-A4 (t=7 days), 2-A5 (t=2 weeks), 2-A6 (t=3 weeks), 2-A7 (t=4 weeks), 2-A8 (t=5 weeks).
FIG. 63 depicts the XRPD diffractogram overlay of the time point monitoring of 2-B (double bagged open vial) at 75% RH at 40° C. Overlay of, from bottom to top, the tabernanthalog monofumarate salt (Sample Reference 1, t=0), 2-B1 (t=3 h), 2-B2 (t=24 h), 2-B3 (t=48 h), 2-B4 (t=7 days), 2-B5 (t=2 weeks), 2-B6 (t=3 weeks), 2-B7 (t=4 weeks), 2-B8 (t=5 weeks).

[5] = Qualitative solubility screen of the tabernanthalog monofumarate salt in solvents (Example 5, Experiment Reference 1; Example 2)
Experimental: Consistent with Example 1, samples were dissolved in various solvents/solvent systems and cooled to isolate solid material.
Tabernanthalog fumarate dissolved at 5 vol (200 mg/mL) only at reflux in two solvents, water and methanol. At 15 vol the product dissolved in both refluxing butanol and ethanol. Consistent with Example 1, the dissolved samples were cooled. On cooling, each of the four effective solvents yielded solid material. The solids thus obtained were analyzed by XRPD yielding diffractograms with novel peaks from products isolated from each of the four protic solvents.
The tabernanthalog monofumarate salt (Pattern #1, Sample Reference 1, 25 mg, 1 wt) was weighed out in 20 separate vials to qualitatively examine the solubility in an array of diverse solvents. […] If insoluble at 5 vol, the solvent quantity was increased to 10 vol, 15 vol and 20 vol of the respective solvent. […] The insoluble suspensions were additionally worked up for XRPD analysis. The resultant powder patterns were subsequently cross-referenced against the input supplied material.

[6] = Stability examination of supplied monofumarate material at 40° C./75% RH (Example 5, Experiment Reference 2); settings: 75% RH at 40° C., up to 5 w
[7] = Amorphisation activity: Antisolvent/N2 Flow, 50 mg
[8] = Amorphisation activity: Freeze dry, 50 mg
[9] = Amorphisation activity: HFIP Evaporation, 50 mg
[10] = Amorphisation activity: Milling, 50 or 100 mg
[11] = Amorphisation activity: Rotary Vac (MeOH), 50 mg
[12] = Amorphisation activity: Spray drying (15% EtOH/Water), 100 mg
[13] = Amorphisation activity: Spray drying (MeOH), 100 mg
[14] = Amorphisation activity: THF/N2, 50 mg

## C/C=C/C=C/C(=O)O.COc1ccc2c3c([nH]c2c1)CCN(C)CC3 [Experiment 1-Sample D1]
[1]; amorphous input, overnight, ambient conditions
  form by XRPD after standing overnight in ambient conditions: crystalline material

## COc1ccc2c3c([nH]c2c1)CCN(C)CC3 [Tabernanthalog•Sorbate]
[2]; [7]
  Form by XRPD: Form A
  Outcome: Crystalline
[2]; [8]
  Form by XRPD: Form A
  Outcome: Crystalline
[2]; [9]
  Form by XRPD: Pattern #7
  Outcome: Crystalline and Gum
[2]; Amorphisation activity: Hot Melt Extrusion (Overnight), 250 mg
  Form by XRPD: Form A
[2]; Amorphisation activity: Hot Melt Extrusion, 250 mg
  Form by XRPD: Form A
[2]; [10]
  Form by XRPD: Form A
  Outcome: Crystalline
[2]; [11]
  Form by XRPD: Form A
  Outcome: Crystalline
[2]; [12]
  Form by XRPD: Form A
  Outcome: Crystalline
[2]; [13]
  Form by XRPD: Form A
  Outcome: Crystalline
[2]; [14]
  Form by XRPD: Form A
  Outcome: Crystalline
[1]; amorphous Experiment 1-Sample D1 standing overnight, ambient
  Outcome: Crystalline
[3]; Hot plate heat up, sorbate 20 to 170 ° C., monofumarate 20 to 210 ° C.
  Outcome: Amorphous
[3]; Hot stage plate heat up, sorbate 20 to 170 ° C., monofumarate 20 to 210 ° C.
  Outcome: Amorphous
[3]; Open Pan DSC, sorbate 20 to 165 to −20, O/N 20 to 230 ° C., monofumarate 20 to 210 to −20, O/N 20 to 210 ° C.
  Outcome: Amorphous
[3]; Sealed DSC, sorbate 20 to 165 to −20 to 230 ° C., monofumarate 20 to 210 to −20 to 210 ° C.
  Outcome: Amorphous
[3]; TGA, sorbate 20 to 165 to −20 to 230 ° C., monofumarate 20 to 210 to −20 to 210 ° C.
  Outcome: Amorphous
[3]; amorphous form generated in situ, sealed DSC thermocycle (Sample B1)
  Glass temperature (Tgs): 22 °C

## COc1ccc2c3c([nH]c2c1)CCN(C)CC3 [tabernanthalog monofumarate Pattern #1]
[4]
  stability assessment: no evidence for hydrate formation, chemical degradation or disproportionation

## COc1ccc2c3c([nH]c2c1)CCN(C)CC3 [tabernanthalog monofumarate salt, 8-methoxy-3-methyl-1H,2H,3H,4H,5H,6H-azepino[4,5-b]indole fumarate]
[5]; variety of solvents
  solubility in common solvents: sparingly soluble in most of the common solvents investigated
[5]; water, methanol (two separate solvents), water, thermodynamic from solid, reflux, read-out: soluble in methanol/water at reflux
  solubility: ≥ 200 mg/mL
[6]; open vial and double polyethene bagged, XRPD, HPLC, TGA, DSC, fumarate
  physical and chemical stability: physically and chemically stable
[6]
  change in chemical purity (HPLC): did not show significant changes in chemical purity
